pIC50: −log10 of the molar value. Values joined by “and” are separate entries in the source; they are usually repeats but may differ in a detail not shown here. Equal values may be shown once. “Also recorded” adds a separate entry of the source.
Legend:
[1] = target: Amaranthus palmeri GS2.2 wild‐type (WT); assay: GS enzyme inhibition assay, GS2.2 wild-type; format: biochemical; details: GS2.2 WT
Experimental: (§1) GS activity was determined spectrophotometrically following the Sigma‐Aldrich enzymatic assay protocol. The reaction couples the ATP‐dependent conversion of L‐glutamate and ammonium to L‐glutamine with pyruvate kinase (PK) and L‐lactate dehydrogenase (LDH), such that oxidation of β‐NADH to β‐NAD^+ can be monitored at 340 nm. Recombinant GS from A. palmeri was expressed in E. coli, purified by affinity chromatography, and quantified by the Bradford method using bovine serum albumin as standard. […] Reaction mixtures were equilibrated to 37°C and initiated by the addition of enzyme, and the decrease in absorbance at 340 nm was recorded for 5–10 min; only the linear portion of the curve was used for activity calculations. […] Activity was calculated using an extinction coefficient for NADH of 6.22 mM^−1 cm^−1 and expressed as units per mg protein, where one unit corresponds to the formation of 1 μmol of L‐glutamine in […] at pH 7.1 and 37 °C. […] Percent inhibition was calculated relative to untreated (positive) and no‐enzyme (negative) controls. […] Resistance factors were calculated by dividing the IC₅₀ of each mutant variant by that of wild‐type GS.

[2] = tested on: Amaranthus palmeri GS2.2 G255D; assay: GS enzyme inhibition assay, GS2.2 G255D; format: biochemical; details: full range of GFA concentrations tested (10^−8 M to 10^−2 M), listed as GFA
Experimental: as §1

[3] = tested on: Amaranthus palmeri cytosolic GS1.1 E131A; assay: GS enzyme inhibition assay, GS1.1 E131A; format: biochemical
Experimental: as §1

[4] = tested on: Amaranthus palmeri cytosolic GS1.1 E131D; assay: GS enzyme inhibition assay, GS1.1 E131D; format: biochemical
Experimental: as §1

[5] = tested on: Amaranthus palmeri cytosolic GS1.1 E131G; assay: GS enzyme inhibition assay, GS1.1 E131G; format: biochemical
Experimental: as §1

[6] = tested on: Amaranthus palmeri cytosolic GS1.1 E131Q; assay: GS enzyme inhibition assay, GS1.1 E131Q; format: biochemical
Experimental: as §1

[7] = tested on: Amaranthus palmeri cytosolic GS1.1 E192Q; assay: GS enzyme inhibition assay, GS1.1 E192Q; format: biochemical
Experimental: as §1

[8] = tested on: Amaranthus palmeri cytosolic GS1.1 H249L; assay: GS enzyme inhibition assay, GS1.1 H249L; format: biochemical
Experimental: as §1

[9] = tested on: Amaranthus palmeri cytosolic GS1.1 H249N; assay: GS enzyme inhibition assay, GS1.1 H249N; format: biochemical
Experimental: as §1

[10] = tested on: Amaranthus palmeri cytosolic GS1.1 R291C; assay: GS enzyme inhibition assay, GS1.1 R291C; format: biochemical
Experimental: as §1

[11] = tested on: Amaranthus palmeri cytosolic GS1.1 R291S; assay: GS enzyme inhibition assay, GS1.1 R291S; format: biochemical
Experimental: as §1

[12] = tested on: Amaranthus palmeri cytosolic GS1.1 R311P; assay: GS enzyme inhibition assay, GS1.1 R311P; format: biochemical
Experimental: as §1

[13] = tested on: Amaranthus palmeri cytosolic GS1.1 R34A; assay: GS enzyme inhibition assay, GS1.1 R34A; format: biochemical
Experimental: as §1

[14] = tested on: Amaranthus palmeri cytosolic GS1.1 Y55L; assay: GS enzyme inhibition assay, GS1.1 Y55L; format: biochemical
Experimental: as §1

[15] = tested on: Amaranthus palmeri cytosolic GS1.1 D56C; assay: GS enzyme inhibition assay, GS1.1 D56C; format: biochemical
Experimental: as §1

[16] = tested on: Amaranthus palmeri cytosolic GS1.1 D56S; assay: GS enzyme inhibition assay, GS1.1 D56S; format: biochemical
Experimental: as §1

[17] = tested on: Amaranthus palmeri cytosolic GS1.1 S59N; assay: GS enzyme inhibition assay, GS1.1 S59N; format: biochemical
Experimental: as §1

[18] = tested on: Amaranthus palmeri cytosolic GS1.1 T60Q; assay: GS enzyme inhibition assay, GS1.1 T60Q; format: biochemical
Experimental: as §1

[19] = tested on: Amaranthus palmeri cytosolic GS1.1 V161N; assay: GS enzyme inhibition assay, GS1.1 V161N; format: biochemical
Experimental: as §1

[20] = tested on: Amaranthus palmeri cytosolic GS1.1 G162N; assay: GS enzyme inhibition assay, GS1.1 G162N; format: biochemical
Experimental: as §1

[21] = tested on: Amaranthus palmeri cytosolic GS1.1 K177L; assay: GS enzyme inhibition assay, GS1.1 K177L; format: biochemical
Experimental: as §1

[22] = tested on: Amaranthus palmeri cytosolic GS1.1 E297A; assay: GS enzyme inhibition assay, GS1.1 E297A; format: biochemical
Experimental: as §1

[23] = tested on: Amaranthus palmeri cytosolic GS1.1 E297Q; assay: GS enzyme inhibition assay, GS1.1 E297Q; format: biochemical
Experimental: as §1

[24] = tested on: Amaranthus palmeri cytosolic GS1.1 A309L; assay: GS enzyme inhibition assay, GS1.1 A309L; format: biochemical
Experimental: as §1

[25] = tested on: Amaranthus palmeri cytosolic GS1.1 R316A; assay: GS enzyme inhibition assay, GS1.1 R316A; format: biochemical
Experimental: as §1

[26] = tested on: Amaranthus palmeri cytosolic GS1.1 R316E; assay: GS enzyme inhibition assay, GS1.1 R316E; format: biochemical
Experimental: as §1

[27] = tested on: A. palmeri population from Arkansas (CCR); design: method as in ref 16 = [16]; 16 Priess GL , Norsworthy JK , Godara N , Mauromoustakos A , Butts TR , Roberts TL et al ., Confirmation of glufosinate‐resistant palmer amaranth and response to other herbicides . Weed Technol 36 : 3; details: CCR population compared with susceptible standards; listed as GFA; cited from earlier work
[28] = read-out: Glufosinate‐ammonium IC50

## CP(=O)(O)CCC(N)C(=O)O (stereo not drawn) [Glufosinate‐ammonium]
[1]
  pIC50: 3.96
[2]
  inhibition by GFA: completely insensitive; also recorded: no measurable inhibition; also recorded: no detectable inhibition
[3]; 10 000 μM
  Glufosinate‐ammonium % Inhibition at saturation 10 000 μM: 8.5%
[3]; [28]
  pIC50: < 2.00
[4]; 10 000 μM
  Glufosinate‐ammonium % Inhibition at saturation 10 000 μM: 48%
[4]; [28]
  pIC50: < 2.00
[5]; 10 000 μM
  Glufosinate‐ammonium % Inhibition at saturation 10 000 μM: 7.2%
[5]; [28]
  pIC50: < 2.00
[6]; 10 000 μM
  Glufosinate‐ammonium % Inhibition at saturation 10 000 μM: 6.5%
[6]; [28]
  pIC50: < 2.00
[7]; 10 000 μM
  Glufosinate‐ammonium % Inhibition at saturation 10 000 μM: 0%
[7]; [28]
  pIC50: < 2.00
[8]; 10 000 μM
  Glufosinate‐ammonium % Inhibition at saturation 10 000 μM: 7.8%
[8]; [28]
  pIC50: < 2.00
[9]; 10 000 μM
  Glufosinate‐ammonium % Inhibition at saturation 10 000 μM: 17%
[9]; [28]
  pIC50: < 2.00
[10]; 10 000 μM
  Glufosinate‐ammonium % Inhibition at saturation 10 000 μM: 0%
[10]; [28]
  pIC50: < 2.00
[11]; 10 000 μM
  Glufosinate‐ammonium % Inhibition at saturation 10 000 μM: 0.3%
[11]; [28]
  pIC50: < 2.00
[12]; 10 000 μM
  Glufosinate‐ammonium % Inhibition at saturation 10 000 μM: 0%
[12]; [28]
  pIC50: < 2.00
[13]; IC50 variant / IC50 WT
  Resistance index (RI): 8.4
[13]; [28]
  pIC50: 3.74
[14]; IC50 variant / IC50 WT
  Resistance index (RI): 0.8
[14]; [28]
  pIC50: 4.77
[15]; IC50 variant / IC50 WT
  Resistance index (RI): 0.2
[15]; [28]
  pIC50: 5.41
[16]; IC50 variant / IC50 WT
  Resistance index (RI): 2.6
[16]; [28]
  pIC50: 4.25
[17]; IC50 variant / IC50 WT
  Resistance index (RI): 1.8
[17]; [28]
  pIC50: 4.40
[18]; IC50 variant / IC50 WT
  Resistance index (RI): 16.9
[18]; [28]
  pIC50: 3.44
[19]; IC50 variant / IC50 WT
  Resistance index (RI): 3.0
[19]; [28]
  pIC50: 4.19
[20]; IC50 variant / IC50 WT
  Resistance index (RI): 22.6
[20]; [28]
  pIC50: 3.31
[21]; IC50 variant / IC50 WT
  Resistance index (RI): 0.1
[21]; [28]
  pIC50: 5.89
[22]; IC50 variant / IC50 WT
  Resistance index (RI): 0.3
[22]; [28]
  pIC50: 5.16
[23]; IC50 variant / IC50 WT
  Resistance index (RI): 0.0
[23]; [28]
  pIC50: 6.22
[24]; IC50 variant / IC50 WT
  Resistance index (RI): 9.4
[24]; [28]
  pIC50: 3.69
[25]; IC50 variant / IC50 WT
  Resistance index (RI): 14.4
[25]; [28]
  pIC50: 3.50
[26]; IC50 variant / IC50 WT
  Resistance index (RI): 9.1
[26]; [28]
  pIC50: 3.71
[27]
  resistance indices: 5.1 and 5.9
